Target: T1, human PAH with the R408W mutation (A375 R408W cells) (Homo sapiens, UniProt P00439, R408W)
T1 construct: expressed in transfected cells
T1 sequence (P00439 1-452 R408W): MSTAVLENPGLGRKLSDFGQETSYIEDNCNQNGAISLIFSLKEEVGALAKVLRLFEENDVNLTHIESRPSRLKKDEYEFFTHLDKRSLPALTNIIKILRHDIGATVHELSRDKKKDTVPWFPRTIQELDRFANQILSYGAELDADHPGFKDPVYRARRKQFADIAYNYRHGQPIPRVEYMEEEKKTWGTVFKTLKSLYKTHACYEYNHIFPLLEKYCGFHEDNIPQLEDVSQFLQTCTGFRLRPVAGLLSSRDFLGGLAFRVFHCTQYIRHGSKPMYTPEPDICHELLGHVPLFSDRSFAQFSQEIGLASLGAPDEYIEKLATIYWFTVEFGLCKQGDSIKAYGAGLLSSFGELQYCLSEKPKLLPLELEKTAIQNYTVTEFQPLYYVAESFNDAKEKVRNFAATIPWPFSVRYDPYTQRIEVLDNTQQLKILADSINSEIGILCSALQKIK
Assay: Cell Based Phenylalanine Flux Assay
Conditions: A375 R408W cells; 24 hrs with compound, then 20 μM sepiapterin and 800 μM 13C9,15N-Phenylalanine for 4 hours; 13C-Tyrosine by LC-MS; average where tested multiple times
Summary of the method: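 Phenylalanine-to-tyrosine flux is measured in A375 cells carrying stable human R408W PAH. After 24 h compound exposure, 13C9,15N-Phe (800 μM) with sepiapterin (20 μM) is supplied for 4 h and media 13C-Tyr is read by LC-MS; AC50s are binned.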

AC50	Compound
0.5 to 1 µM	CC(C)(O)c1nc(C(F)F)c(C(=O)N2CCc3[nH]cnc3[C@H]2c2nc3cc(Br)ccc3o2)o1 [Example 415, [(4S)-4-(5-bromo-1,3-benzoxazol-2-yl)-1,4,6,7-tetrahydroimidazo[4,5-c]pyridin-5-yl]-[4-(difluoromethyl)-2-(1-hydroxy-1-methyl-ethyl)oxazol-5-yl]methanone]
≤ 0.5 µM	O=C(c1oc(N2CCOCC2)nc1C(F)F)N1CCc2[nH]cnc2[C@H]1c1nc2cccc(F)c2o1 [Example 648, (S)-(4-(difluoromethyl)-2-morpholinooxazol-5-yl)(4-(7-fluorobenzo[d]oxazol-2-yl)-6,7-dihydro-1H-imidazo[4,5-c]pyridin-5(4H)-yl)methanone]
1 to 5 µM	Cc1ccc2nc([C@H]3c4nc[nH]c4CCN3C(=O)c3nnc(-c4cc[nH]n4)o3)oc2c1 [Example 360, (R)-(5-(1H-pyrazol-3-yl)-1,3,4-oxadiazol-2-yl)(4-(6-methylbenzo[d]oxazol-2-yl)-6,7-dihydro-1H-imidazo[4,5-c]pyridin-5(4H)-yl)methanone]
≤ 0.5 µM	COc1cccc2nc([C@@H]3c4nc[nH]c4CCN3C(=O)c3oc(C(C)(C)O)nc3C(F)F)oc12 [Example 455, (S)-(4-(difluoromethyl)-2-(2-hydroxypropan-2-yl)oxazol-5-yl)(4-(7-methoxybenzo[d]oxazol-2-yl)-6,7-dihydro-1H-imidazo[4,5-c]pyridin-5(4H)-yl)methanone]
0.5 to 1 µM	O=C(c1ocnc1C(F)(F)F)N1CCc2[nH]cnc2[C@@H]1c1nc2c(F)ccc(F)c2o1 [Example 796, (R)-(4-(4,7-difluorobenzo[d]oxazol-2-yl)-6,7-dihydro-1H-imidazo[4,5-c]pyridin-5(4H)-yl)(4-(trifluoromethyl)oxazol-5-yl)methanone]
0.5 to 1 µM	Cc1nc(C(=O)N2CCc3[nH]cnc3[C@H]2c2nc3c(C)cccc3o2)n(C)n1 [Example 819, (S)-(1,3-dimethyl-1H-1,2,4-triazol-5-yl)(4-(4-methylbenzo[d]oxazol-2-yl)-6,7-dihydro-1H-imidazo[4,5-c]pyridin-5(4H)-yl)methanone]
0.5 to 1 µM	O=C(c1oc(-c2cncnc2)nc1C(F)F)N1CCc2[nH]cnc2[C@@H]1c1nc2cc(F)ccc2o1 [Example 405, (R)-(4-(difluoromethyl)-2-(pyrimidin-5-yl)oxazol-5-yl)(4-(5-fluorobenzo[d]oxazol-2-yl)-6,7-dihydro-1H-imidazo[4,5-c]pyridin-5(4H)-yl)methanone]
≥ 5 µM	Cc1ccc2nc([C@H]3c4nc[nH]c4CCN3C(=O)c3nnc(-c4cnn(C(F)F)c4)o3)oc2c1 [Example 682, (R)-(5-(1-(difluoromethyl)-1H-pyrazol-4-yl)-1,3,4-oxadiazol-2-yl)(4-(6-methylbenzo[d]oxazol-2-yl)-6,7-dihydro-1H-imidazo[4,5-c]pyridin-5(4H)-yl)methanone]
≤ 0.5 µM	COc1cccc2oc([C@@H]3c4nc[nH]c4CCN3C(=O)c3nnc(-c4ccn(C)n4)o3)nc12 [Example 639, (S)-(4-(4-methoxybenzo[d]oxazol-2-yl)-6,7-dihydro-1H-imidazo[4,5-c]pyridin-5(4H)-yl)(5-(1-methyl-1H-pyrazol-3-yl)-1,3,4-oxadiazol-2-yl)methanone]
0.5 to 1 µM	CC(C)(O)c1ncc(C(=O)N2CCc3[nH]cnc3[C@H]2c2nc3cccc(F)c3o2)o1 [Example 713, (S)-(4-(7-fluorobenzo[d]oxazol-2-yl)-6,7-dihydro-1H-imidazo[4,5-c]pyridin-5(4H)-yl)(2-(2-hydroxypropan-2-yl)oxazol-5-yl)methanone]
1 to 5 µM	O=C(c1nnc(-c2ccccn2)o1)N1CCc2[nH]cnc2[C@@H]1c1nc2ccc(F)c(F)c2o1 [Example 545, (R)-(4-(6,7-difluorobenzo[d]oxazol-2-yl)-6,7-dihydro-1H-imidazo[4,5-c]pyridin-5(4H)-yl)(5-(pyridin-2-yl)-1,3,4-oxadiazol-2-yl)methanone]
≤ 0.5 µM	Cc1ccc2oc([C@@H]3c4nc[nH]c4CCN3C(=O)c3nnc(-c4ccn(C)n4)o3)nc2c1 [Example 389, (S)-(5-(1-methyl-1H-pyrazol-3-yl)-1,3,4-oxadiazol-2-yl)(4-(5-methylbenzo[d]oxazol-2-yl)-6,7-dihydro-1H-imidazo[4,5-c]pyridin-5(4H)-yl)methanone]
≤ 0.5 µM	O=C(c1ocnc1C(F)F)N1CCc2[nH]cnc2[C@H]1c1nc2c(OC(F)(F)F)cccc2o1 [Example 536, (S)-(4-(difluoromethyl)oxazol-5-yl)(4-(4-(trifluoromethoxy)benzo[d]oxazol-2-yl)-6,7-dihydro-1H-imidazo[4,5-c]pyridin-5(4H)-yl)methanone]

Second part, the compound before the results:

Compound	AC50
O=C(c1cnn2cc(N3CCC4(CC3)CC4)ccc12)N1CCc2[nH]cnc2[C@@H]1c1nc2cccc(F)c2o1 [Example 396, (R)-(6-(6-azaspiro[2.5]octan-6-yl)pyrazolo[1,5-a]pyridin-3-yl)(4-(7-fluorobenzo[d]oxazol-2-yl)-6,7-dihydro-1H-imidazo[4,5-c]pyridin-5(4H)-yl)methanone]	1 to 5 µM
CN(C)c1ccc2c(C(=O)N3CCc4[nH]cnc4[C@@H]3c3nc4cc(F)ccc4o3)cnn2c1 [Example 92, (R)-(6-(dimethylamino)pyrazolo[1,5-a]pyridin-3-yl)(4-(5-fluorobenzo[d]oxazol-2-yl)-6,7-dihydro-1H-imidazo[4,5-c]pyridin-5(4H)-yl)methanone]	≥ 5 µM
Cc1nc([C@@H](C)O)oc1C(=O)N1CCc2[nH]cnc2[C@H]1c1nc2c(F)cccc2o1 [Example 210, ((S)-4-(4-fluorobenzo[d]oxazol-2-yl)-6,7-dihydro-1H-imidazo[4,5-c]pyridin-5(4H)-yl)(2-((R)-1-hydroxyethyl)-4-methyloxazol-5-yl)methanone]	0.5 to 1 µM
Cc1nc([C@H](C)O)oc1C(=O)N1CCc2[nH]cnc2[C@H]1c1nc2ccc(F)cc2o1 [Example 241, ((S)-4-(6-fluorobenzo[d]oxazol-2-yl)-6,7-dihydro-1H-imidazo[4,5-c]pyridin-5(4H)-yl)(2-((S)-1-hydroxyethyl)-4-methyloxazol-5-yl)methanone]	1 to 5 µM
O=C(c1ocnc1C(F)F)N1CCc2[nH]cnc2[C@@H]1c1nc2ccc(Br)cc2o1 [Example 146, (R)-(4-(6-bromobenzo[d]oxazol-2-yl)-6,7-dihydro-1H-imidazo[4,5-c]pyridin-5(4H)-yl)(4-(difluoromethyl)oxazol-5-yl)methanone]	0.5 to 1 µM
O=C(c1ccnn1C(F)F)N1Cc2[nH]cnc2[C@H]1c1nc2ccccc2o1 [Example 951, (S)-(4-(benzo[d]oxazol-2-yl)-4,6-dihydropyrrolo[3,4-d]imidazol-5(1H)-yl)(1-(difluoromethyl)-1H-pyrazol-5-yl)methanone]	1 to 5 µM
O=C(c1oc(-c2ccccn2)nc1C1CC1)N1CCc2[nH]cnc2[C@@H]1c1nc2cc(F)ccc2o1 [Example 44, (R)-(4-cyclopropyl-2-(pyridin-2-yl)oxazol-5-yl)(4-(5-fluorobenzo[d]oxazol-2-yl)-6,7-dihydro-1H-imidazo[4,5-c]pyridin-5(4H)-yl)methanone]	1 to 5 µM
O=C(c1oc(C2(O)CC2)nc1C(F)F)N1CCc2[nH]cnc2[C@H]1c1nc2c(F)cccc2o1 [Example 215, (S)-(4-(difluoromethyl)-2-(1-hydroxycyclopropyl)oxazol-5-yl)(4-(4-fluorobenzo[d]oxazol-2-yl)-6,7-dihydro-1H-imidazo[4,5-c]pyridin-5(4H)-yl)methanone]	0.5 to 1 µM
CN(C)CCc1ccc2c(C(=O)N3CCc4[nH]cnc4[C@H]3c3nc4cc(F)ccc4o3)cnn2c1 [Example 47, (S)-(6-(2-(dimethylamino)ethyl)pyrazolo[1,5-a]pyridin-3-yl)(4-(5-fluorobenzo[d]oxazol-2-yl)-6,7-dihydro-1H-imidazo[4,5-c]pyridin-5(4H)-yl)methanone]	1 to 5 µM

Same assay, conditions: A375 cells expressing R408W PAH; 24 hrs with compound, then 20 μM sepiapterin and 800 μM 13C9,15N-Phenylalanine for 4 hours; 13C-Tyrosine by LC-MS; average where tested multiple times

AC50	Compound
1 to 5 µM	Cc1nnc(C(=O)N2CCc3[nH]cnc3C2c2nc3cc(F)ccc3o2)o1 (centres unmarked)
1 to 5 µM	Cc1ccc2oc(C3c4nc[nH]c4CCN3C(=O)c3nnc(C(C)(C)O)o3)nc2c1 (centres unmarked)
≥ 5 µM	CC(C)(O)c1noc(C(=O)N2CCc3[nH]cnc3C2c2nc3cc(F)ccc3o2)n1 (centres unmarked)
1 to 5 µM	Cn1cc(-c2ncc(C(=O)N3CCc4[nH]cnc4C3c3nc4ccc(Br)cc4o3)o2)cn1 (centres unmarked)
1 to 5 µM	Cn1cncc1-c1nnc(C(=O)N2CCc3[nH]cnc3C2c2nc3cccc(C(F)(F)F)c3o2)o1 (centres unmarked)
≥ 5 µM	O=C(c1ccn(-c2ccccn2)n1)N1CCc2[nH]cnc2C1c1nc2cccc(F)c2o1 (centres unmarked)

Second part, the compound before the results:

Compound	AC50
CC(C)(O)c1cc(C(=O)N2CCc3[nH]cnc3C2c2nc3ccc(F)cc3o2)on1 (single isomer, unassigned) [4R enantiomer of 2-{5-[4-(6-fluoro-1,3-benzoxazol-2-yl)-1H,4]	≥ 5 µM
Cc1nc(C(C)O)oc1C(=O)N1CCc2[nH]cnc2C1c1nc2c(F)cccc2o1 (centres unmarked)	≥ 5 µM
COCc1ccc2c(C(=O)N3CCc4[nH]cnc4C3c3nc4ccc(C)cc4o3)cnn2c1 (centres unmarked)	≥ 5 µM
Cc1ccc2nc(C3c4nc[nH]c4CCN3C(=O)c3ocnc3C#N)oc2c1 (centres unmarked)	≥ 5 µM

From patent US20250171437A1 (Agios Pharmaceuticals,Inc., priority 2022, published 2025)
